# In PubChem BioAssay AID602156 (GNF / Scripps Winzeler lab, 2011):
# Activity calls are given as the source filed them. The rule behind the calls is not given here.
# Tested on: P. yoelii liver stage in HepG2-A16-CD81EGFP, imaging
# Test: Plasmodium liver-stage growth inhibition, dose response, imaging, Malaria Box, P. yoelii, HepG2-A16-CD81EGFP (AID 602156);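 note: infected cells exposed to compound for 48 hours before fixation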
row,Structure (SMILES),IC50
1,COc1cc(OC)c(NC(=O)C2c3ccccc3C(=O)N(C)C2c2ccc(OC)c(OC)c2)cc1Cl (stereo not given),> 9130 nM (inactive)
2,Cc1[nH]c2ccccc2c(=O)c1Br,214 nM
3,NCC(=O)N1CCn2c(nc(-c3ccccc3)c2Nc2ccc3c(c2)OCO3)C1,221 nM
4,CCCCCC[P+](N(CCC)CCC)(N(CCC)CCC)N(CCC)CCC,49.1 nM
5,O=C1C2=C(Nc3ccccc3SC2c2ccc(OCc3ccccc3)cc2)c2ccccc21 (stereo not given),58 nM
6,CCCN[P+](CC(C)C)(NCCC)NCCC,281 nM
7,Cc1[nH]c2ccc(Br)cc2c(=O)c1CC(C)C,244 nM
8,Cc1ccc(-c2c[n+]3c(n2-c2ccccc2)SCC3)cc1,1090 nM
9,CC(C)c1nc(N2CCN(C(=O)Nc3ccccc3)CC2)c(C#N)c2c1COC(C)(C)C2,1020 nM
10,CCC1CN2CCc3cc(OC)c(OC)cc3C2CC1CC1NCCc2cc(OC)c(OC)cc21 (stereo not given),80.2 nM
11,O=C1C2=C(Nc3ccccc3SC2c2cccs2)c2ccccc21 (stereo not given),90.4 nM
12,CCOC(=O)c1ccc(NCc2c(C)[nH]c3ccccc3c2=O)cc1,137 nM
13,Fc1ccc(Nc2nc(NCc3ccccc3)c3ccccc3n2)cc1,3790 nM
14,c1ccc(CSc2scnc2[P+](c2ccccc2)(c2ccccc2)c2ccccc2)cc1,68.5 nM
15,Cc1nc2ccc(NC(=O)C3CC3)cc2c(=O)n1Cc1ccc(Cl)cc1,> 10000 nM (inactive)
16,COc1ccccc1Cc1nc2ccccc2nc1SCC(=O)Nc1cccc(C(F)(F)F)c1,> 10000 nM (inactive)
17,c1ccc2cc3c(N4CCN(CCN5CCN(c6ccnc7cc8ccccc8cc67)CC5)CC4)ccnc3cc2c1,2910 nM
18,CCN(c1ccccc1)S(=O)(=O)c1ccc(F)c(C(=O)Nc2c(C)cccc2C)c1,> 10000 nM (inactive)
19,C[C@@H]1C[C@@H]([C@H](O)CC2CC(=O)NC(=O)C2)C(=O)[C@@H](C)C1,78.1 nM
20,O=c1c2c([nH]c3ccccc13)CCCCCCCCCC2,99 nM
21,Cn1cnnc1SCC(=O)Nc1ccccc1C(F)(F)F,> 10000 nM (inactive)
22,Cc1c(C#N)c2ccccc2n1CC(=O)Nc1ccc(Br)cc1,> 10000 nM (inactive)
23,Cc1ccc(N2C(N)=NC(N)=NC2(C)C)cc1,10 nM
24,Cc1ccc(-c2cc(C(=O)OCC(=O)c3cccc([N+](=O)[O-])c3)c3cc(C)ccc3n2)cc1,> 10000 nM (inactive)
25,COc1cc(C(=O)NCCc2ccccn2)ccc1OC1CCN(CC(c2ccccc2)c2ccccc2)CC1,1280 nM
26,CCC(C)Nc1nc(NC(C)CC)nc(N2CCCCCC2)n1 (stereo not given),300 nM
27,S=C(NN=Cc1ccccn1)NC1CC2CC1C1C=CCC21 (stereo not given),25.6 nM

row,Structure (SMILES),IC50
1,c1ccc(OCCOc2ccc(Nc3c4ccccc4nc4ccccc34)cc2)cc1,559 nM
2,CCCCn1c(N=Nc2c(O)[nH]c3ccccc23)nc2c1c(=O)[nH]c(=O)n2C,> 10000 nM (inactive)
3,CCOc1ccc(CN(C(=O)COc2ccc(Cl)cc2)C(C)CCCN(CC)CC)cc1 (stereo not given),20.4 nM
4,CCOC(=O)C1(CC)CC(C)(C(=O)C[n+]2cccc(Br)c2)OC1=O (stereo not given),> 10000 nM (inactive)
5,Oc1c(CN2CCN(Cc3ccc4cccnc4c3O)CC2)ccc2cccnc12,96.6 nM
6,Fc1ccccc1Nc1nc(NCc2ccccc2)c2ccccc2n1,690 nM
7,Cc1cccc(C(=O)NCc2n[nH]c(=S)n2-c2cccc(C(F)(F)F)c2)c1,> 10000 nM (inactive)
8,CN(C)CCCN(Cc1cc2cc3c(cc2[nH]c1=O)OCO3)C(=S)Nc1cccc(Cl)c1,818 nM
9,COc1cccc(OC)c1C(=O)Nn1c(-c2cccc(C)c2)nc2ccccc2c1=O,> 10000 nM (inactive)
10,CC[C@H]1CN2CCc3cc(OC)c(OC)cc3[C@@H]2C[C@@H]1C[C@H]1NCCc2cc(OC)c(OC)cc21,7.49 nM
11,O=C(Nc1ccc(-c2nc3ccc(NC(=O)c4ccc(Br)o4)cc3[nH]2)cc1)c1ccc(Br)o1,812 nM
12,CCc1c(C#N)c(N)nc(SCC(=O)c2ccc(C)cc2)c1C#N,> 10000 nM (inactive)
13,CCOC(=O)c1cnc2ccc(OC)cc2c1Cl,410 nM
14,CCc1cc2c(cc1-c1csc(N=C(N)N)n1)C(C)(C)CCC2(C)C,2900 nM
15,Cc1cccc(-c2cc3nc(C)c(C)c(=O)n3[nH]2)c1,1100 nM
16,c1ccc(OCCOc2ccc(Nc3ccnc4cc5ccccc5cc34)cc2)cc1,67.5 nM
17,CCCN(CCC)[P+](CCC)(c1ccc([P+](CCC)(N(CCC)CCC)N(CCC)CCC)cc1)N(CCC)CCC,280 nM
18,Cc1ccc(OCC(=O)Nc2cccc(-c3nc4ncccc4o3)c2)cc1C,> 10000 nM (inactive)
19,CC[n+]1c(C=C2C=Cc3cc(C)ccc3N2C)sc(C)c1C,11.3 nM
20,CCCCc1c(C)[nH]c2c(OC)cccc2c1=O,561 nM
21,COc1ccc(C(c2ccc(N(C)C)cc2)c2ccc(N(C)C)cc2)cc1,> 10000 nM (inactive)
22,O=[N+]([O-])c1cc(C(F)(F)F)ccc1N1CCCN(C(=S)Nc2ccccc2)CC1,2230 nM
23,COc1ccc(-c2c(C(F)(F)F)nn(C)c2NC(=O)Nc2ccc(F)cc2F)cc1,3450 nM
24,O=C(Nc1ccc(C(F)(F)F)cc1)c1ccc(NCCCN2CCCCCC2)c([N+](=O)[O-])c1,450 nM
25,Cc1ccc2cc(C)c(Nc3ccc(Cl)cc3)nc2c1,148 nM
26,Cc1nc([P+](c2ccccc2)(c2ccccc2)c2ccccc2)c(N2CCCCC2)o1,82.4 nM
27,O=C(c1ccc([N+](=O)[O-])cc1)c1ccc(Cl)c(Cl)c1,1640 nM

row,Structure (SMILES),IC50
1,CCN1/C(=C/c2ccc3ccccc3[n+]2CC)Sc2sc3ccccc3c21,6.21 nM
2,Cc1ccccc1N=Nc1ccc(NC(=O)c2ccco2)c(C)c1,300 nM
3,Cc1cccc(C)c1N(CC(=O)NCc1ccco1)S(C)(=O)=O,> 10000 nM (inactive)
4,CC(c1nc2ccc(Cl)cc2c(=O)n1C)N1CCN(S(=O)(=O)c2cccc3ccccc23)CC1 (stereo not given),22.3 nM
5,CCC(=O)NC(c1ccccc1Cl)c1cc(Cl)c2cccnc2c1O (stereo not given),1010 nM
6,COc1ccc(C2Sc3ccccc3NC3=C2C(=O)c2ccccc23)cc1 (stereo not given),706 nM
7,CCN(CC)CCN(Cc1cc2ccc(C)cc2[nH]c1=O)C(=S)NC(C)c1ccccc1 (stereo not given),883 nM
8,Fc1ccc(-c2c[n+]3c(n2-c2ccccc2)SCC3)cc1,> 4300 nM (inactive)
9,CCOc1ccc(Nc2nc(NCc3ccccc3)c3ccccc3n2)cc1,480 nM
10,COc1ccc(Nc2nc(NCc3ccccc3)c3ccccc3n2)cc1,305 nM
11,CC(Oc1ccc(Cl)cc1Cl)c1nc(-c2ccc(NC(=O)c3cccs3)cc2)no1 (stereo not given),114 nM
12,COc1ccc(C(NC(=O)c2cccnc2)c2cc(Cl)c3cccnc3c2O)cc1 (stereo not given),542 nM
13,Cc1nc2cc(-c3ccc(I)cc3)[nH]n2c(=O)c1C,119 nM
14,O=C1C2=C(Nc3ccccc3SC2c2ccccc2)c2ccccc21 (stereo not given),93.7 nM
15,Cc1ccc(Nc2nc3c(N)nnc(N)c3nc2Nc2ccc(C)cc2)cc1,488 nM
16,CCC(C)(C)c1ccc(OCCOCC[n+]2ccccc2)c(C(C)(C)CC)c1,96.2 nM
17,CCCCc1c(CCC)c(=N)c2ccccc2n1C,244 nM
18,CN(Cc1ccccc1)C(=O)CSc1nc(NCc2ccccc2)c2ccccc2n1,7.13 nM
19,CCCCCCN(C(=O)COc1ccccc1)C(CC)c1nc2ccccc2c(=O)n1-c1cccc(Cl)c1 (stereo not given),> 10000 nM (inactive)
20,CCOC(=O)c1c(CNC)n(C)c2cc(Br)c(O)cc12,> 10000 nM (inactive)
21,CC(C)CC(N)C(=O)N1CCn2c(nc(-c3ccccc3)c2Nc2ccc3c(c2)OCO3)C1 (stereo not given),186 nM
22,CC1(C)N=C(N)N=C(N)N1c1ccc(I)cc1,10 nM
23,Cc1ccc(-n2c(-c3ccccc3)cc(C=NNC(=O)c3cccc(O)c3)c2-c2ccccc2)cc1,20.2 nM
24,O=C(C1CC1)N1CCc2cc(Br)cc(S(=O)(=O)N3CCCC3)c21,> 10000 nM (inactive)
25,CC(Oc1ccc(Cl)cc1Cl)c1nc(-c2ccc(NC(=O)c3ccco3)cc2)no1 (stereo not given),154 nM
26,COC(=O)C1=C(C)NC2=C(C(=O)CC(c3ccccc3Cl)C2)C1c1ccc([N+](=O)[O-])cc1 (stereo not given),842 nM
27,c1ccc(-c2cc(N3CCN(c4ccccn4)CC3)nc(-c3ccccn3)n2)nc1,17.5 nM

row,Structure (SMILES),IC50
1,CC(=O)N(C1=C(N2CCOCC2)C(=O)c2ccccc2C1=O)c1cccc(Cl)c1,744 nM
2,Cc1cc(NC(c2cccc(Br)c2)c2ccc3cccnc3c2O)no1 (stereo not given),147 nM
3,CCOC(=O)C1=C(C)NC2=C(C(=O)C(C(=O)OCC)C(c3ccccc3OC)C2)C1c1ccc([N+](=O)[O-])cc1 (stereo not given),335 nM
4,Cc1ccc(-c2c[n+]3c(n2-c2ccc(C)cc2)CCCCC3)cc1,146 nM
5,O=C(Nc1ccc(-c2nc3ccc(NC(=O)c4cccc([N+](=O)[O-])c4)cc3[nH]2)cc1)c1cccc([N+](=O)[O-])c1,> 944 nM (inactive)
6,CC(=O)N1c2ccc(C)cc2C(C)(c2ccccc2)CC1(C)C (stereo not given),1250 nM
7,c1ccc(Cc2cc[n+](Cc3ccccc3)cc2)cc1,4520 nM
8,O=C(c1cnsn1)N1CCCC(COc2cccc(CN3CCC(Cc4ccccc4)CC3)c2)C1 (stereo not given),609 nM
9,COc1ccc2sc(Nc3nc(-c4ccccn4)cs3)nc2c1,159 nM
10,CCOC(=O)c1c(CSc2ccccc2)oc2cc(CN(C)C)c(O)c(Cl)c12,7200 nM
11,CCN(CC)CCCN(Cc1cc2cc(OC)c(OC)cc2[nH]c1=O)C(=S)Nc1cccc(Cl)c1,162 nM
12,c1ccc(-c2csc(Nc3nc4cc5c(cc4s3)OCO5)n2)nc1,78.9 nM
13,CCCCCCOc1ccc(C(C)=NNC2=NCCN2)cc1[N+](=O)[O-],784 nM
14,CCN(CC)CCCN(Cc1cc2ccc(C)cc2[nH]c1=O)C(=S)Nc1cccc(Cl)c1,448 nM
15,CC(C)NCC(O)Cn1c2ccc(Cl)cc2c2cc(Cl)ccc21 (stereo not given),2970 nM
16,CCc1nc(N)nc(N)c1-c1ccc(Cl)cc1,2.15 nM
17,CCCCCCCCn1c(C)[n+](C)c2cc(Cl)c(Cl)cc21,419 nM
18,CN(C)c1ccc(-c2n(C)c3ccccc3[n+]2C)cc1,175 nM
19,CC[n+]1c(/C=C/C=C2\N(C)c3ccccc3C2(C)C)n(-c2ccccc2)c2cc(Cl)ccc21,13.6 nM
20,Nc1nonc1-n1nnc(C(=O)NN=Cc2ccc(F)c(Br)c2)c1-c1ccc([N+](=O)[O-])cc1,> 10000 nM (inactive)
21,Clc1ncnc2ncn(Cc3ccccc3)c12,> 10000 nM (inactive)
22,CCCCCCCC[n+]1c(C)n(CC)c2cc(C(=O)OCC)ccc21,990 nM
23,Cc1ccc(NC(=O)C2C3C=CC4(O3)C2C(=O)N(CCCN2CCOCC2)C4C(=O)NC2CCCC(C)C2C)cc1Cl (stereo not given),> 10000 nM (inactive)
24,CCCCCC[n+]1ccccc1/C=C/c1ccc(N(C)C)cc1,55.9 nM
